Results from publication PMC7673559 (2020).

Key:
[1] = system: T1 (DNA, G4) GGGTTGGGTTGGGTTGGG; assay: CD melting at 262 nm; details: 5 mM K+, 95 mM Li+; 10 mM lithium cacodylate pH 7.2; ~5 μM DNA, 2 eq. NMM
[2] = system: T7 (DNA, G4) TGGGTTGGGTTGGGTTGGGT; assay: CD melting at 262 nm; details: 5 mM K+, 95 mM Li+; 10 mM lithium cacodylate pH 7.2; ~5 μM DNA, 2 eq. NMM
[3] = system: T8 (DNA, G4) CGGGTTGGGTTGGGTTGGGG; assay: CD melting at 262 nm; details: 5 mM K+, 95 mM Li+; 10 mM lithium cacodylate pH 7.2; ~5 μM DNA, 2 eq. NMM
[4] = system: T1 (DNA, G4) GGGTTGGGTTGGGTTGGG; assay: X-ray crystallography, 2.39 Å; details: 20 mM K+; annealed in 10 mM lithium cacodylate pH 7.2; 5'-5' GQ dimer, NMM on 3' G-quartet
[5] = system: T7 (DNA, G4) TGGGTTGGGTTGGGTTGGGT; assay: X-ray crystallography, 2.34 Å; details: 20 mM K+; annealed in 10 mM lithium cacodylate pH 7.2; 5'-5' GQ dimer, NMM on 3' G-quartet
[6] = system: T7 (DNA, G4) TGGGTTGGGTTGGGTTGGGT; assay: UV-vis titration, SVD, direct fit; details: 5 mM K+, 95 mM Li+; 10 mM lithium cacodylate pH 7.2; 4.3 μM NMM titrated with DNA

CCc1c(C)c2cc3nc(cc4nc(cc5c(CC)c(C)c(cc1[nH]2)n5C)C(C)=C4CCC(=O)O)C(CCC(=O)O)=C3C
ΔTm [1]: 20. ± 1 °C | ΔTm [2]: 19.9 ± 0.4 °C | ΔTm [3]: 17.0 ± 0.5 °C | binding [4]: yes | binding [5]: yes | Ka [6]: 18 ± 7 µM⁻¹
